According to patent publication US10953027B2, “Active agents and methods of their use for the treatment of metabolic disorders and nonalcoholic fatty liver disease” (Flagship Pioneering Innovations V, Inc., priority 2018, dated 2021):

What was measured:
Assay type in all cases: in vitro ADME
[1] = Assay 3. Fecal Incubation Stability; settings: 1 or 10 μM, human fecal slurry, anaerobic
[2] = Assay 2. Stability in Simulated Intestinal Fluid (SIF); settings: 1 μM, 37° C., SIF pH 6.7 with pancreatin
How it was run: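 Acylated compounds at 1 μM (from 1 mM DMSO stock) in fresh SIF: FaSSIF with pancreatin in pH 6.7 phosphate buffer, agitated at 37 °C. Aliquots from T0 onward quenched with 1 volume acetonitrile; LC/MS gives degradation rates.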

[3] = Assay 1. Stability in Simulated Gastric Fluid (SGF); settings: 1 μM, 37° C., SGF pH 1.6 with pepsin
How it was run: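 Acylated compounds at a final 1 μM (diluted from 1 mM DMSO stock) were incubated at 37 °C in SGF of pH 1.6 NaCl buffer with FaSSIF powder and 0.1 mg/mL pepsin. Aliquots were quenched with acetonitrile at T0 and regular intervals, and degradation rates were determined by LC/MS.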

For `CCCC(=O)O[C@@H]1[C@H](OC(=O)CCC)C=C(C(=O)O)C[C@H]1OC(=O)CCC` [Compound 255, (3R,4S,5R)-3,4,5-tris(butanoyloxy)cyclohex-1-ene-1-carboxylic Acid], the “Assay 3 (% Remaining at 24 h)” value [1] was “B (B: 25-75% of the tested compound remaining)”, the “Assay 2 (SIF) (% @ Remaining 4 hours)” value [2] was “C (C: >75% of the tested compound remaining)” and the “Assay 1 (SGF) (% Remaining @ 1 hours)” value [3] was “C (C: >75% of the tested compound remaining)”.
In the case of `CCC(=O)OC[C@H]1O[C@@H](OC(=O)CCc2c[nH]c3ccccc23)[C@H](OC(=O)CC)[C@@H](OC(=O)CC)[C@@H]1OC(=O)CC` [Compound 144, [(2R,3R,4S,5R,6S)-6-{[3-(1H-indol-3-yl)propanoyl]oxy}-3,4,5-tris(propanoyloxy)oxan-2-yl]methyl Propanoate], the “Assay 3 (% Remaining at 24 h)” value [1] is reported as “A (A: <25% of the tested compound remaining)”, the “Assay 2 (SIF) (% @ Remaining 4 hours)” value [2] is reported as “A (A: <25% of the tested compound remaining)” and the “Assay 1 (SGF) (% Remaining @ 1 hours)” value [3] is reported as “C (C: >75% of the tested compound remaining)”.
For `CCC(=O)OC[C@H]1O[C@H](OC(=O)CCc2c[nH]c3ccccc23)[C@H](OC(=O)CC)[C@@H](OC(=O)CC)[C@@H]1OC(=O)CC` [Compound 141, [(2R,3R,4S,5R,6R)-6-{[3-(1H-indol-3-yl)propanoyl]oxy}-3,4,5-tris(propanoyloxy)oxan-2-yl]methyl Propanoate], the “Assay 3 (% Remaining at 24 h)” value [1] was “A (A: <25% of the tested compound remaining)”, the “Assay 2 (SIF) (% @ Remaining 4 hours)” value [2] was “A (A: <25% of the tested compound remaining)” and the “Assay 1 (SGF) (% Remaining @ 1 hours)” value [3] was “C (C: >75% of the tested compound remaining)”.
With `CC(=O)O[C@@H]1[C@H](OC(C)=O)C=C(C(=O)O)C[C@H]1OC(C)=O` [Compound 43, (3R,4S,5R)-3,4,5-triacetoxycyclohex-1-ene-1-carboxylic Acid] the “Assay 3 (% Remaining at 24 h)” value [1] was “B (B: 25-75% of the tested compound remaining)”, the “Assay 2 (SIF) (% @ Remaining 4 hours)” value [2] was “C (C: >75% of the tested compound remaining)” and the “Assay 1 (SGF) (% Remaining @ 1 hours)” value [3] was “C (C: >75% of the tested compound remaining)”.
For `CCC(=O)O[C@H]1[C@H](OC(=O)/C=C/c2c[nH]c3ccccc23)OC[C@@H](OC(=O)CC)[C@H]1OC(=O)CC` [Compound 124, (2S,3R,4R,5R)-3,4,5-tris(propanoyloxy)oxan-2-yl (2E)-3-(1H-indol-3-yl)prop-2-enoate], the “Assay 3 (% Remaining at 24 h)” value [1] was “A (A: <25% of the tested compound remaining)”, the “Assay 2 (SIF) (% @ Remaining 4 hours)” value [2] was “A (A: <25% of the tested compound remaining)” and the “Assay 1 (SGF) (% Remaining @ 1 hours)” value [3] was “C (C: >75% of the tested compound remaining)”.
In the case of `CCCC(=O)O[C@@H]1[C@@H](OC(=O)CCC)[C@@H](OC)OC[C@@H]1OC(=O)CCC` [Compound 85, (2S,3R,4S,5S)-3,5-bis(butanoyloxy)-2-methoxyoxan-4-yl Butanoate], the “Assay 3 (% Remaining at 24 h)” value [1] is reported as “B (B: 25-75% of the tested compound remaining)”, the “Assay 2 (SIF) (% @ Remaining 4 hours)” value [2] is reported as “B (B: 25-75% of the tested compound remaining)” and the “Assay 1 (SGF) (% Remaining @ 1 hours)” value [3] is reported as “B (B: 25-75% of the tested compound remaining)”.
In the case of `CC(=O)O[C@H]1O[C@H](C(=O)O)[C@@H](OC(C)=O)[C@H](OC(C)=O)[C@H]1OC(C)=O` [Compound 195, (2S,3S,4S,5R,6R)-3,4,5,6-tetraacetoxytetrahydro-2H-pyran-2-carboxylic Acid], the “Assay 3 (% Remaining at 24 h)” value [1] is reported as “B (B: 25-75% of the tested compound remaining)”, the “Assay 2 (SIF) (% @ Remaining 4 hours)” value [2] is reported as “C (C: >75% of the tested compound remaining)” and the “Assay 1 (SGF) (% Remaining @ 1 hours)” value [3] is reported as “C (C: >75% of the tested compound remaining)”.
In the case of `CCC(=O)Oc1ccc(-c2cc(=O)c3c(O)cc(OC(=O)CC)cc3o2)cc1` [Compound 199, 5-hydroxy-4-oxo-2-[4-(propanoyloxy)phenyl]-4H-chromen-7-yl Propanoate], the “Assay 3 (% Remaining at 24 h)” value [1] is reported as “A (A: <25% of the tested compound remaining)”, the “Assay 2 (SIF) (% @ Remaining 4 hours)” value [2] is reported as “A (A: <25% of the tested compound remaining)” and the “Assay 1 (SGF) (% Remaining @ 1 hours)” value [3] is reported as “B (B: 25-75% of the tested compound remaining)”.
For `CCC(=O)OC1O[C@H](C(=O)O)[C@@H](OC(=O)CC)[C@H](OC(=O)CC)[C@H]1OC(=O)CC` (stereo in doubt) [Compound 80, (2S,3S,4S,5R,6S)-3,4,5,6-tetrakis(propanoyloxy)oxane-2-carboxylic Acid], the “Assay 3 (% Remaining at 24 h)” value [1] was “A (A: <25% of the tested compound remaining)”, the “Assay 2 (SIF) (% @ Remaining 4 hours)” value [2] was “A (A: <25% of the tested compound remaining)” and the “Assay 1 (SGF) (% Remaining @ 1 hours)” value [3] was “C (C: >75% of the tested compound remaining)”.
In the case of `CCC(=O)O[C@@H]1O[C@@H](C)[C@H](OC(=O)CC)[C@@H](OC(=O)CC)[C@H]1OC(=O)CC` [Compound 111, (2S,3R,4R,5S,6S)-6-methyl-3,4,5-tris(propanoyloxy)oxan-2-yl propanoate], the “Assay 3 (% Remaining at 24 h)” value [1] is reported as “A (A: <25% of the tested compound remaining)”, the “Assay 2 (SIF) (% @ Remaining 4 hours)” value [2] is reported as “A (A: <25% of the tested compound remaining)” and the “Assay 1 (SGF) (% Remaining @ 1 hours)” value [3] is reported as “B (B: 25-75% of the tested compound remaining)”.
In the case of `CCC(=O)O[C@@H]1[C@@H](OC(=O)CC)[C@H](OC(=O)Cc2c[nH]c3ccccc23)OC[C@H]1OC(=O)CC` [Compound 109, (2S,3R,4S,5R)-2-{[2-(1H-indol-3-yl)acetyl]oxy}-4,5-bis(propanoyloxy)oxan-3-yl Propanoate], the “Assay 3 (% Remaining at 24 h)” value [1] is reported as “A (A: <25% of the tested compound remaining)”, the “Assay 2 (SIF) (% @ Remaining 4 hours)” value [2] is reported as “A (A: <25% of the tested compound remaining)” and the “Assay 1 (SGF) (% Remaining @ 1 hours)” value [3] is reported as “C (C: >75% of the tested compound remaining)”.
In the case of `CCC(=O)O[C@H]1O[C@H](C(=O)O)[C@@H](OC(=O)CC)[C@H](OC(=O)CC)[C@H]1OC(=O)CC` [Compound 79, (2S,3S,4S,5R,6R)-3,4,5,6-tetrakis(propanoyloxy)oxane-2-carboxylic Acid], the “Assay 3 (% Remaining at 24 h)” value [1] is reported as “A (A: <25% of the tested compound remaining)”, the “Assay 2 (SIF) (% @ Remaining 4 hours)” value [2] is reported as “A (A: <25% of the tested compound remaining)” and the “Assay 1 (SGF) (% Remaining @ 1 hours)” value [3] is reported as “C (C: >75% of the tested compound remaining)”.
For `CCC(=O)O[C@@H]1[C@H](OC)OC[C@@H](OC(=O)CC)[C@H]1OC(=O)CC` [Compound 101, (2R,3S,4R,5R)-2-methoxy-3,5-bis(propanoyloxy)oxan-4-yl Propanoate], the “Assay 3 (% Remaining at 24 h)” value [1] was “B (B: 25-75% of the tested compound remaining)”, the “Assay 2 (SIF) (% @ Remaining 4 hours)” value [2] was “A (A: <25% of the tested compound remaining)” and the “Assay 1 (SGF) (% Remaining @ 1 hours)” value [3] was “C (C: >75% of the tested compound remaining)”.
With `CCCC(=O)OC[C@H]1O[C@@H](OC(=O)CCc2c[nH]c3ccccc23)[C@H](OC(=O)CCC)[C@@H](OC(=O)CCC)[C@@H]1OC(=O)CCC` [Compound 118, [(2R,3R,4S,5R,6S)-3,4,5-tris(butanoyloxy)-6-{[3-(1H-indol-3-yl)propanoyl]oxy}oxan-2-yl]methyl Butanoate] the “Assay 3 (% Remaining at 24 h)” value [1] was “A (A: <25% of the tested compound remaining)”, the “Assay 2 (SIF) (% @ Remaining 4 hours)” value [2] was “A (A: <25% of the tested compound remaining)” and the “Assay 1 (SGF) (% Remaining @ 1 hours)” value [3] was “B (B: 25-75% of the tested compound remaining)”.
In the case of `CCCC(=O)OC[C@H]1O[C@H](OC)[C@H](OC(=O)CCC)[C@@H](OC(=O)CCC)[C@@H]1OC(=O)CCC` [Compound 87, [(2R,3R,4S,5R,6S)-3,4,5-tris(butanoyloxy)-6-methoxyoxan-2-yl]methyl Butanoate], the “Assay 3 (% Remaining at 24 h)” value [1] is reported as “A (A: <25% of the tested compound remaining)”, the “Assay 2 (SIF) (% @ Remaining 4 hours)” value [2] is reported as “A (A: <25% of the tested compound remaining)” and the “Assay 1 (SGF) (% Remaining @ 1 hours)” value [3] is reported as “B (B: 25-75% of the tested compound remaining)”.
In the case of `CCC(=O)O[C@@H]1[C@@H](OC(=O)CC)[C@@H](OC)OC[C@@H]1OC(=O)CC` [Compound 86, (2S,3R,4S,5S)-2-methoxy-3,5-bis(propanoyloxy)oxan-4-yl Propanoate], the “Assay 3 (% Remaining at 24 h)” value [1] is reported as “C (C: >75% of the tested compound remaining)”, the “Assay 2 (SIF) (% @ Remaining 4 hours)” value [2] is reported as “B (B: 25-75% of the tested compound remaining)” and the “Assay 1 (SGF) (% Remaining @ 1 hours)” value [3] is reported as “C (C: >75% of the tested compound remaining)”.
With `CCC(=O)O[C@H]1[C@H](OC(=O)Cc2c[nH]c3ccccc23)OC[C@@H](OC(=O)CC)[C@H]1OC(=O)CC` [Compound 138, (2S,3R,4R,5R)-2-{[2-(1H-indol-3-yl)acetyl]oxy}-4,5-bis(propanoyloxy)oxan-3-yl Propanoate] the “Assay 3 (% Remaining at 24 h)” value [1] was “A (A: <25% of the tested compound remaining)”, the “Assay 2 (SIF) (% @ Remaining 4 hours)” value [2] was “A (A: <25% of the tested compound remaining)” and the “Assay 1 (SGF) (% Remaining @ 1 hours)” value [3] was “C (C: >75% of the tested compound remaining)”.
With `CCC(=O)O[C@@H]1OC[C@@H](OC(=O)CC)[C@@H](OC(=O)CC)[C@H]1OC(=O)CC` [Compound 136, (2S,3R,4R,5R)-3,4,5-tris(propanoyloxy)oxan-2-yl Propanoate] the “Assay 3 (% Remaining at 24 h)” value [1] was “A (A: <25% of the tested compound remaining)”, the “Assay 2 (SIF) (% @ Remaining 4 hours)” value [2] was “A (A: <25% of the tested compound remaining)” and the “Assay 1 (SGF) (% Remaining @ 1 hours)” value [3] was “C (C: >75% of the tested compound remaining)”.
With `CCC(=O)O[C@@H]1[C@@H](OC(=O)CC)[C@H](OC(=O)CCc2c[nH]c3ccccc23)OC[C@@H]1OC(=O)CC` [Compound 107, (2S,3R,4S,5S)-3,4,5-tris(propanoyloxy)oxan-2-yl 3-(1H-indol-3-yl)propanoate] the “Assay 3 (% Remaining at 24 h)” value [1] was “A (A: <25% of the tested compound remaining)”, the “Assay 2 (SIF) (% @ Remaining 4 hours)” value [2] was “A (A: <25% of the tested compound remaining)” and the “Assay 1 (SGF) (% Remaining @ 1 hours)” value [3] was “C (C: >75% of the tested compound remaining)”.
For `CCC(=O)O[C@@H]1[C@@H](OC(=O)CC)[C@H](C)O[C@H](OC(=O)/C=C/c2c[nH]c3ccccc23)[C@@H]1OC(=O)CC` [Compound 139, (2R,3R,4R,5S,6S)-6-methyl-3,4,5-tris(propanoyloxy)oxan-2-yl (2E)-3-(1H-indol-3-yl)prop-2-enoate], the “Assay 3 (% Remaining at 24 h)” value [1] was “B (B: 25-75% of the tested compound remaining)”, the “Assay 2 (SIF) (% @ Remaining 4 hours)” value [2] was “A (A: <25% of the tested compound remaining)” and the “Assay 1 (SGF) (% Remaining @ 1 hours)” value [3] was “B (B: 25-75% of the tested compound remaining)”.
